{"source": "paper PMC4887716", "about": "(Iranian Journal of Basic Medical Sciences, 2016)", "key": {"P-gp [1]": {"system": "P-gp", "experiment": "In situ single pass intestinal perfusion", "conditions": "for increase of digoxin Peff: in situ SPIP"}, "[2]": {"conditions": "cited from earlier work"}, "Caco-2 cells": {"system": "Caco-2 cells", "experiment": "In vitro cytotoxicity study", "type": "cell-based, human", "conditions": "clemastine 0.01-10 µM, 24 hr incubation"}, "P-gp [3]": {"system": "P-gp", "conditions": "MDR-MDCK cells; cited from earlier work"}, "P-gp [4]": {"system": "P-gp", "conditions": "cited from earlier work"}, "[5]": {"conditions": "cited from earlier work", "remark": "listed apart in the source"}}, "note": "Read-outs that look alike come from different tables or passages of the source."}
{"molecule": "CN1CCC[C@@H]1CCO[C@](C)(c1ccccc1)c1ccc(Cl)cc1", "note": "[clemastine]", "values": [{"measurement": "increase of digoxin Peff", "setting": "P-gp [1]; 0.5 µM clemastine", "result": "about 65%"}, {"measurement": "increase of digoxin Peff", "setting": "P-gp [1]; 10 µM clemastine", "result": "~165", "unit": "%"}, {"measurement": "solubility in water", "setting": "[2]", "result": "very slightly soluble in water"}, {"measurement": "cytotoxic effect on Caco-2 cells (cell viability, MTT)", "setting": "Caco-2 cells", "result": "no cytotoxic effect"}, {"measurement": "P-gp substrate status from efflux in presence of cyclosporine-A", "setting": "P-gp [3]", "result": "clemastine is a P-gp substrate"}, {"measurement": "P-gp substrate classification", "setting": "P-gp [4]", "result": "non-P-gp-substrate"}, {"measurement": "elimination half-life", "setting": "[5]", "result": "approximately 21 hr"}, {"measurement": "therapeutic level in blood plasma", "setting": "[5]", "result": "0.7 to 2", "unit": "ng/mL"}, {"measurement": "therapeutic level in blood plasma", "setting": "[5]; converted from ng/ml", "result": "1.5 to 4.4", "unit": "nM"}]}
{"molecule": "C[C@H]1O[C@@H](O[C@H]2[C@@H](O)C[C@H](O[C@H]3[C@@H](O)C[C@H](O[C@H]4CC[C@@]5(C)[C@H](CC[C@@H]6[C@@H]5C[C@@H](O)[C@]5(C)[C@@H](C7=CC(=O)OC7)CC[C@]65O)C4)O[C@@H]3C)O[C@@H]2C)C[C@H](O)[C@@H]1O", "note": "[digoxin]", "values": [{"measurement": "Peff of digoxin alone (control)", "setting": "P-gp [1]; 20 µM digoxin, rat jejunum SPIP", "result": "3.4±0.8 ×10^-5cm/s"}]}
